Measured values from US8937090B2, “Parakeratosis inhibitor, pore-shrinking agent and external composition for skin” (Shiseido Company, Ltd., priority 2005, dated 2015).

How the values were obtained:
hairless mice (HR-1) = assay: Inhibiting effect on rough skin induced by oleic acid application (transepidermal water loss); assay type: in vivo, mouse; design: ΔTEWL value: unit not given here; conditions: for rough skin preventing/ameliorating effect (ΔTEWL value versus control aqueous solution): in words, summary of Table 3; for ΔTEWL value: average of four mice, 3 days after 10 mass % oleic acid, control 12.0, increase = rough skin worse
Experimental: In order to investigate the inhibiting effect of β-alanine derivatives and salts thereof on rough skin induced by oleic acid application, the transepidermal water loss (TEWL value) before and after application was measured, the difference was compared with the control (control aqueous solution), and the effect was determined. […] The TEWL was determined using the TM210 TEWA Meter (Courage+Khazaka Electronic GmBH).
100 μL of 10 mass % oleic acid (solvent: ethanol) was applied to the back of hairless mice (HR-1, four mice per group). Then a sample solution (β-alanine derivatives) was applied 100 μL at a time. This procedure was continued for three days. On the following day, the TEWL value of the back was determined and the values of the four animals were averaged.

hairless mouse (HR-1) = assay: Parakeratosis-inhibiting effect test (oleic acid applied to back of hairless mouse; visual rough skin evaluation and parakeratosis value); assay type: in vivo; conditions: for parakeratosis-inhibiting effect: in words, summary of Table 1; for Visual evaluation (average of four animals): rough skin score, control = 2.0, no skin roughness = 0.0, 3 days application after 10 mass % oleic acid; for Parakeratosis value (average of four animals): scale 1.0 to 3.0, higher = parakeratosis advanced, control 2.0
Experimental: Aqueous solutions (containing 30 mass % of ethanol) of 3 mass % of a β-alanine derivative or salt thereof were prepared mainly as the evaluation sample. The pH was regulated by hydrochloric acid or sodium hydroxide so as to be 7.0 to 7.5. When sample solubility was low, the solution was prepared accordingly.
100 μL of 10 mass % oleic acid solution (solvent: ethanol) were applied to the back of a hairless mouse (HR-1; Hoshino Laboratory Animals). Then the sample solution (β-alanine derivative, and the like) was applied 100 μL at a time. This procedure was continued for three days. […] At the same time, the stratum corneum at the back of the hairless mouse was peeled off with tape, the nuclei were stained by hematoxylin, and the degree of parakeratosis was observed and evaluated by a parakeratosis value within a range of 1.0 to 3.0 (in 0.25 increments).

panel of 20 women = assay: Sensory irritation tests; assay type: in vivo, human; conditions: for sensory irritation: in words, summary of Table 4; for Evaluation (sensory irritation, class of average rating): 1 mL to cheek, rated for ten minutes
Experimental: 1 mL of a control aqueous solution and the sample aqueous solution prepared in Example 1 were applied using a cotton swab to the left or right cheek, respectively, of each member of a panel of 20 women, and the irritating sensation was evaluated every 30 seconds for ten minutes beginning immediately after application, whereby a final evaluation was reported. The evaluation of the irritating sensation was made based on the following four levels of rating criteria, and the average rating was calculated, whereby the average was classified by the following criteria.
3: Continuation is not possible because of extremely strong irritation, such as tingling sensation, burning sensation, stinging sensation, itching, and the like.
2: Intolerable because of strong irritation, such as tingling sensation, burning sensation, stinging sensation, itching, and the like.
1: Tolerable, but with slight irritation such as tingling sensation, burning sensation, stinging sensation, itching, and the like.
0: Not particularly irritating.
(Evaluation Criteria) • A: average rating of less than 0.2 • B: average rating of from 0.2 to less than 1.0 • C: average rating of from 1.0 to less than 2.0 • D: average rating of 2.0 or greater

[1] = tested on: cheeks of healthy human males; assay: Human pore-shrinking effect (replica of cheek pores, three-dimensional laser scanning microscope); assay type: in vivo; conditions: for pore-shrinking effect: in words, summary of Table 2; for Replica assessment value (average of n = 5): twice a day for one month, pore size rating (1-13) after minus before application, control 0.3
Experimental: An experiment was conducted whereby a sample was applied twice a day for one month to the cheeks of healthy human males in groups of 5 men each. Aqueous solutions (containing 15 mass % of ethanol) of 3 mass % of the β-alanine derivative or a salt thereof were prepared mainly as the evaluation sample. The pH was regulated by hydrochloric acid or sodium hydroxide so as to be 7.0 to 7.5. When the sample solubility was low, the solution was prepared accordingly. The control was an aqueous 15% ethanol solution. The sample aqueous solution and the control aqueous solution were applied to one half of the face at a time.
A replica was collected before and after continuous application, and changes in the shape of the pores at the same site were observed using a three-dimensional laser scanning microscope. The size of the pores was visually evaluated in the 13 steps of 1 through 13 (with the pores becoming larger as the numbers became larger), the difference in the ratings before and after application (after application—before application) was calculated, and the efficacy of each sample was studied using this difference as the replica assessment value.

N=C(N)NCCC(=O)O [3-guanidinopropionic acid, reference compound]
rough skin preventing/ameliorating effect (ΔTEWL value versus control aqueous solution) (hairless mice (HR-1)): no effect was seen
ΔTEWL value (hairless mice (HR-1); sample 3 mass %): 12.3
parakeratosis-inhibiting effect (hairless mouse (HR-1)): effect was not seen
Visual evaluation (average of four animals) (hairless mouse (HR-1); sample 3 mass %): 2.1
Parakeratosis value (average of four animals) (hairless mouse (HR-1); sample 3 mass %): 2.1

O=C(O)CCNS(=O)(=O)c1ccccc1 [N-benzenesulfonyl-β-alanine]
rough skin preventing/ameliorating effect (ΔTEWL value versus control aqueous solution) (hairless mice (HR-1)): effect was seen
ΔTEWL value (hairless mice (HR-1); sample 3 mass %): 5.4
sensory irritation (panel of 20 women): no problem of sensory irritation
Evaluation (sensory irritation, class of average rating) (panel of 20 women; sample 3 mass %): A (average rating of less than 0.2)
pore-shrinking effect [1]: effect was seen
Replica assessment value (average of n = 5) ([1]; sample 3 mass %): −0.7
parakeratosis-inhibiting effect (hairless mouse (HR-1)): reduced the parakeratosis value
Visual evaluation (average of four animals) (hairless mouse (HR-1); sample 3 mass %): 1.1
Parakeratosis value (average of four animals) (hairless mouse (HR-1); sample 3 mass %): 1.2

O=C(O)CCNC(=O)c1ccccc1 [N-benzoyl-β-alanine]
rough skin preventing/ameliorating effect (ΔTEWL value versus control aqueous solution) (hairless mice (HR-1)): effect was seen
ΔTEWL value (hairless mice (HR-1); sample 3 mass %): 4.0
sensory irritation (panel of 20 women): no problem of sensory irritation
Evaluation (sensory irritation, class of average rating) (panel of 20 women; sample 3 mass %): A (average rating of less than 0.2)
pore-shrinking effect [1]: effect was seen
Replica assessment value (average of n = 5) ([1]; sample 1.0 mass %): −1.5
parakeratosis-inhibiting effect (hairless mouse (HR-1)): reduced the parakeratosis value
Visual evaluation (average of four animals) (hairless mouse (HR-1); sample 3 mass %): 1.1
Parakeratosis value (average of four animals) (hairless mouse (HR-1); sample 3 mass %): 1.1

NC(=O)NCCC(=O)O [3-ureidopropionic acid, reference compound]
rough skin preventing/ameliorating effect (ΔTEWL value versus control aqueous solution) (hairless mice (HR-1)): no effect was seen
ΔTEWL value (hairless mice (HR-1); sample 3 mass %): 11.9
parakeratosis-inhibiting effect (hairless mouse (HR-1)): effect was not seen
Visual evaluation (average of four animals) (hairless mouse (HR-1); sample 3 mass %): 2.0
Parakeratosis value (average of four animals) (hairless mouse (HR-1); sample 3 mass %): 2.2

O=C(O)CCNC(=O)c1cccnc1 [N-nicotinoyl-β-alanine]
rough skin preventing/ameliorating effect (ΔTEWL value versus control aqueous solution) (hairless mice (HR-1)): effect was seen
ΔTEWL value (hairless mice (HR-1); sample 1 mass %): 6.0
sensory irritation (panel of 20 women): no problem of sensory irritation
Evaluation (sensory irritation, class of average rating) (panel of 20 women; sample 1 mass %): A (average rating of less than 0.2)
pore-shrinking effect [1]: effect was seen
Replica assessment value (average of n = 5) ([1]; sample 1.0 mass %): −0.8
parakeratosis-inhibiting effect (hairless mouse (HR-1)): reduced the parakeratosis value
Visual evaluation (average of four animals) (hairless mouse (HR-1); sample 1 mass %): 1.1
Parakeratosis value (average of four animals) (hairless mouse (HR-1); sample 1 mass %): 1.2

O=C(O)CCNCC1CCCCC1 [N-cyclohexylmethyl-β-alanine]
rough skin preventing/ameliorating effect (ΔTEWL value versus control aqueous solution) (hairless mice (HR-1)): effect was seen
ΔTEWL value (hairless mice (HR-1); sample 3 mass %): 8.9
sensory irritation (panel of 20 women): no problem of sensory irritation
Evaluation (sensory irritation, class of average rating) (panel of 20 women; sample 3 mass %): A (average rating of less than 0.2)
pore-shrinking effect [1]: effect was seen
Replica assessment value (average of n = 5) ([1]; sample 3 mass %): −0.8
parakeratosis-inhibiting effect (hairless mouse (HR-1)): reduced the parakeratosis value
Visual evaluation (average of four animals) (hairless mouse (HR-1); sample 3 mass %): 1.1
Parakeratosis value (average of four animals) (hairless mouse (HR-1); sample 3 mass %): 1.1

O=C(O)CCNCc1ccccc1 [N-benzyl-β-alanine]
rough skin preventing/ameliorating effect (ΔTEWL value versus control aqueous solution) (hairless mice (HR-1)): effect was seen
ΔTEWL value (hairless mice (HR-1); sample 3 mass %): 8.9
sensory irritation (panel of 20 women): no problem of sensory irritation
Evaluation (sensory irritation, class of average rating) (panel of 20 women; sample 3 mass %): A (average rating of less than 0.2)
pore-shrinking effect [1]: effect was seen
Replica assessment value (average of n = 5) ([1]; sample 3 mass %): −0.8
parakeratosis-inhibiting effect (hairless mouse (HR-1)): reduced the parakeratosis value
Visual evaluation (average of four animals) (hairless mouse (HR-1); sample 3 mass %): 1.2
Parakeratosis value (average of four animals) (hairless mouse (HR-1); sample 3 mass %): 1.2

COc1cccc(C(=O)NCCC(=O)O)c1 [N-(3′-methoxybenzoyl)-β-alanine]
rough skin preventing/ameliorating effect (ΔTEWL value versus control aqueous solution) (hairless mice (HR-1)): effect was seen
ΔTEWL value (hairless mice (HR-1); sample 3 mass %): 6.9
sensory irritation (panel of 20 women): no problem of sensory irritation
Evaluation (sensory irritation, class of average rating) (panel of 20 women; sample 3 mass %): A (average rating of less than 0.2)
pore-shrinking effect [1]: effect was seen
Replica assessment value (average of n = 5) ([1]; sample 3 mass %): −1.0
parakeratosis-inhibiting effect (hairless mouse (HR-1)): reduced the parakeratosis value
Visual evaluation (average of four animals) (hairless mouse (HR-1); sample 3 mass %): 1.2
Parakeratosis value (average of four animals) (hairless mouse (HR-1); sample 3 mass %): 1.2

O=C(O)CCNC1CCCCC1 [N-cyclohexyl-β-alanine]
rough skin preventing/ameliorating effect (ΔTEWL value versus control aqueous solution) (hairless mice (HR-1)): effect was seen
ΔTEWL value (hairless mice (HR-1); sample 3 mass %): 9.0
sensory irritation (panel of 20 women): no problem of sensory irritation
pore-shrinking effect [1]: effect was seen
Replica assessment value (average of n = 5) ([1]; sample 3 mass %): −0.9
parakeratosis-inhibiting effect (hairless mouse (HR-1)): reduced the parakeratosis value
Visual evaluation (average of four animals) (hairless mouse (HR-1); sample 3 mass %): 1.1
Parakeratosis value (average of four animals) (hairless mouse (HR-1); sample 3 mass %): 1.1

O=C(O)CCN1CCCCC1 [3-(1′-piperidine)-propionate, 3-(1′-piperidine)-propionic acid]
rough skin preventing/ameliorating effect (ΔTEWL value versus control aqueous solution) (hairless mice (HR-1)): effect was seen
ΔTEWL value (hairless mice (HR-1); sample 3 mass %): 5.5
sensory irritation (panel of 20 women): no problem of sensory irritation
Evaluation (sensory irritation, class of average rating) (panel of 20 women; sample 3 mass %): A (average rating of less than 0.2)
pore-shrinking effect [1]: effect was seen
Replica assessment value (average of n = 5) ([1]; sample 3 mass %): −1.2
parakeratosis-inhibiting effect (hairless mouse (HR-1)): reduced the parakeratosis value
Visual evaluation (average of four animals) (hairless mouse (HR-1); sample 3 mass %): 1.4
Parakeratosis value (average of four animals) (hairless mouse (HR-1); sample 3 mass %): 1.4

COc1cc(C(=O)NCCC(=O)O)cc(OC)c1OC [N-(3′,4′,5′-trimethoxybenzoyl)-β-alanine]
rough skin preventing/ameliorating effect (ΔTEWL value versus control aqueous solution) (hairless mice (HR-1)): effect was seen
ΔTEWL value (hairless mice (HR-1); sample 3 mass %): 6.9
sensory irritation (panel of 20 women): no problem of sensory irritation
Evaluation (sensory irritation, class of average rating) (panel of 20 women; sample 3 mass %): A (average rating of less than 0.2)
pore-shrinking effect [1]: effect was seen
Replica assessment value (average of n = 5) ([1]; sample 3 mass %): −0.6
parakeratosis-inhibiting effect (hairless mouse (HR-1)): reduced the parakeratosis value
Visual evaluation (average of four animals) (hairless mouse (HR-1); sample 3 mass %): 1.1
Parakeratosis value (average of four animals) (hairless mouse (HR-1); sample 3 mass %): 1.1

CNCCC(=O)O [N-methyl-β-alanine]
rough skin preventing/ameliorating effect (ΔTEWL value versus control aqueous solution) (hairless mice (HR-1)): effect was seen
ΔTEWL value (hairless mice (HR-1); sample 3 mass %): 6.8
sensory irritation (panel of 20 women): no problem of sensory irritation
Evaluation (sensory irritation, class of average rating) (panel of 20 women; sample 3 mass %): A (average rating of less than 0.2)
pore-shrinking effect [1]: effect was seen
Replica assessment value (average of n = 5) ([1]; sample 3 mass %): −1.0
parakeratosis-inhibiting effect (hairless mouse (HR-1)): reduced the parakeratosis value
Visual evaluation (average of four animals) (hairless mouse (HR-1); sample 3 mass %): 1.1
Parakeratosis value (average of four animals) (hairless mouse (HR-1); sample 3 mass %): 1.2

CC(=O)NCCC(=O)O [N-acetyl-β-alanine, reference compound]
rough skin preventing/ameliorating effect (ΔTEWL value versus control aqueous solution) (hairless mice (HR-1)): no effect was seen
ΔTEWL value (hairless mice (HR-1); sample 3 mass %): 12.1
parakeratosis-inhibiting effect (hairless mouse (HR-1)): effect was not seen
Visual evaluation (average of four animals) (hairless mouse (HR-1); sample 3 mass %): 1.8
Parakeratosis value (average of four animals) (hairless mouse (HR-1); sample 3 mass %): 1.7

C[C@H](N)C(=O)O [alanine, reference compound]
sensory irritation (panel of 20 women): strong sensory irritation
Evaluation (sensory irritation, class of average rating) (panel of 20 women; sample 3 mass %): D (average rating of 2.0 or greater)
